Data from patent EP4755875A1, “PHTHALAZINONE COMPOUND AND PREPARATION METHOD THEREFOR, PHARMACEUTICAL COMPOSITION, AND USE” (Beijing Wehand-Bio Pharmaceutical Co., Ltd, priority 2023, dated 2025).

Columns and labels:
[1] = system: PC-12 cells; experiment: In vitro neuroprotective activity, hydrogen peroxide injury model (CCK-8 viability); format: cell-based; conditions: Rattus norvegicus; compound 10 µM; PC-12 cells injured with hydrogen peroxide (120 µM) for 2 h; 24-hour incubation; relative to model group; read-out: Improved Viability (%)
Experimental: (§1) The in vitro neuroprotective models for evaluating the test compound were hydrogen peroxide injury and glutamate injury models. The PC-12 cells were seeded in a 96-well plate at a density of 1.5 × 10^4 cells/mL, 100 µL per well. The experiment included a blank group, a model group, and drug treatment groups. The hydrogen peroxide injury and glutamate injury models were stimulated for 2 h with a final concentration of 120 µM hydrogen peroxide or 8 mM glutamate, respectively. Subsequently, the cells in the blank group were cultured in complete medium, whereas the cells in the drug treatment groups were cultured by adding 10 µM test compound. After 24-hour incubation for all groups, 10 µL of CCK-8 was added to each well. 60 min later, the absorbance at 490 nm was measured using a microplate reader. The viability was calculated. Improved Viability = (Viability in Drug Treatment Group - Viability in Model Group)/(Viability in Model Group). Table 1 Protective Effects of Phthalazinone Compounds on Nerve Cell Injury Induced by Hydrogen Peroxide (120 µM)

[2] = system: PC-12 cells; experiment: In vitro neuroprotective activity, glutamate injury model (CCK-8 viability); format: cell-based; conditions: Rattus norvegicus; compound 10 µM; PC-12 cells injured with glutamate (8 mM) for 2 h; 24-hour incubation; relative to model group; read-out: Improved Viability (%)
Experimental: as §1

[3] = system: rats with ischemic stroke; experiment: In vivo anti-ischemic stroke activity, middle cerebral artery occlusion model; parameters: species or system SD rats

Row | Compound | activation at 10 µM [1] [%] | activation at 10 µM [2] [%] | other results
1 | CCCCc1nn(Cc2ccncc2)c(=O)c2c(OCCC)cccc12 [Compound 10, 2-(Pyridin-4-methylene)-4-butyl-8-propoxy-phthalazin-1(2H)-one] | 1.93 ± 2.37 | – | –
2 | CCCCc1nn(CC2CCCCC2)c(=O)c2c(OC)cccc12 [Compound 5] | 61.9 ± 6.53 | 14 ± 6.21 | –
3 | CCCCc1nn(CC2CC2)c(=O)c2c(OCCC)cccc12 [Compound 13, 2-(Cyclopropylmethyl)-4-butyl-8-propoxy-phthalazin-1(2H)-one] | 3.14 ± 1.45 | 47.8 ± 8.14 | –
4 | CCCCc1nn(CCC)c(=O)c2c(OCCC)cccc12 [Compound 12, 2-Propyl-4-butyl-8-propoxy-phthalazin-1(2H)-one] | 12.9 ± 6.03 | 5.11 ± 2.33 | –
5 | CCCCc1nn(CC)c(=O)c2c(OC)cccc12 [Compound 2, 2-Ethyl-4-butyl-8-methoxy-phthalazin-1(2H)-one] | 35.8 ± 3.55 | 0.04 ± 1.05 | –
6 | CCCCc1nn(CC2CC2)c(=O)c2c(OC)cccc12 [Compound 4, 2-(Cyclopropylmethyl)-4-butyl-8-methoxy-phthalazin-1(2H)-one] | 23.4 ± 1.83 | 9.75 ± 3.22 | –
7 | CCCCc1nn(Cc2ccc3ccccc3c2)c(=O)c2c(OCCC)cccc12 [Compound 15, 2-(Naphthylmethyl)-4-butyl-8-propoxy-phthalazin-1(2H)-one] | 1.59 ± 1.13 | – | –
8 | CCCCc1nn(Cc2ccc(F)cc2)c(=O)c2c(OCC3CC3)cccc12 [Compound 17, 2-(4-Fluorobenzyl)-4-butyl-8-(cyclopropylmethoxy)-phthalazin-1(2H)-one] | 33 ± 2.37 | 12.2 ± 2.57 | survival rate of rats with ischemia-reperfusion injury ([3]; intragastric 10, 30 and 60 mg/kg, once daily for 7 days, FIG. 1): effectively increase; body weight of rats ([3]; intragastric 10, 30 and 60 mg/kg, once daily for 7 days, FIG. 2): reverse the decrease trend; volume of cerebral infarction ([3]; intragastric 10, 30 and 60 mg/kg, once daily for 7 days, TTC staining, FIG. 3): reduce the volume of cerebral infarction in a dose-dependent manner; effects compared with positive control drug butylphthalide (200 mg/kg) ([3]; survival rate, body weight, infarction volume, Compound 17 at 10, 30, 60 mg/kg by gavage): superior
9 | CCCCc1nn(Cc2ccc(F)cc2)c(=O)c2c(OCCC)cccc12 [Compound 11, 2-(4-Fluorobenzyl)-4-butyl-8-propoxy-phthalazin-1(2H)-one] | 96.8 ± 8.64 | 32.7 ± 6.21 | –
10 | CCCCc1n[nH]c(=O)c2c(OCCC)cccc12 [Compound 9, 4-Butyl-8-propoxy-phthalazin-1(2H)-one] | 60.2 ± 5.87 | 7.48 ± 3.07 | –
11 | CCCCc1nn(CC2CCCCC2)c(=O)c2c(OCCC)cccc12 [Compound 14, 2-(Cyclohexylmethyl)-4-butyl-8-propoxy-phthalazin-1(2H)-one] | 6.68 ± 3.51 | 3.16 ± 3.54 | –
12 | CC1=NN(c2ccccc2)C(=O)C1 [Edaravone, reference compound] | 11.3 ± 2.15 | 3.14 ± 0.85 | –
13 | CCCCc1nn(CC)c(=O)c2c(OCC3CCCCC3)cccc12 [Compound 7, 2-Ethyl-4-butyl-8-(cyclohexylmethoxy)-phthalazin-1(2H)-one] | 0.81 ± 0.37 | – | –
14 | CCCCc1nn(Cc2ccccc2)c(=O)c2c(OCC3CCCCC3)cccc12 [Compound 8, 2-Benzyl-4-butyl-8-(cyclohexylmethoxy)-phthalazin-1(2H)-one] | 12.1 ± 3.25 | 7.99 ± 2.98 | –
15 | CCCCc1nn(CC)c(=O)c2c(OCc3ccc4ccccc4c3)cccc12 [Compound 20, 2-Ethyl-4-butyl-8-(naphthalene-2-methoxy)-phthalazin-1(2H)-one] | 34 ± 3.92 | 8.77 ± 3.01 | –
